Activity calls are given as the source filed them.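 How the source made its calls: active means lipid-stain IC50 at or below a set limit, with nuclear-stain toxicity IC50 at least five times higher; inactive means the rest.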
Legend:
TAG = TAG lipid buildup inhibition with viability readout – cell-based, panel, Nile Red and DAPI fluorescence, H9c2, dose response (AID 651630); conditions: H9c2 cells, Nile Red TAG fluorescence, oleic acid;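 further: cells exposed to compound overnight before fixation and staining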
DAPI = assay: as above; conditions: H9c2 cells, DAPI nuclear fluorescence (cytotoxicity counter-readout), oleic acid

Row | Compound | IC50 (TAG; mean of runs) | IC50 (TAG; run 1) [µM] | IC50 (TAG; run 2) [µM] | IC50 cytotoxicity (DAPI nuclear signal decrease) (DAPI; run 1) [µM] | IC50 cytotoxicity (DAPI nuclear signal decrease) (DAPI; run 2) [µM] | IC50 cytotoxicity (DAPI nuclear signal decrease) (DAPI; mean of runs)
1 | Cc1ccc(NC(=O)CSc2nc3ccc(Nc4nc(N5CCOCC5)nc(N5CCOCC5)n4)cc3s2)cc1 | 3.8 µM | 4.85 | 2.76 | > 25 | > 25 | 
2 | O=C(C[C@H]1C[C@H](C(=O)N2CCOCC2)[C@@]2(CCC3CCCC3)c3[nH]c4ccc(Cl)cc4c3CCN2C1=O)NCC12CC3CC(CC(C3)C1)C2 | > 25 µM (inactive) | > 25 | > 25 | > 25 | > 25 | > 25 µM (inactive)
3 | COC(=O)C1=C(C)N(Cc2ccccc2)C(=NCc2cc(OC)c(OC)c(OC)c2)N[C@H]1c1ccc(Br)cc1 | > 25 µM (inactive) | > 25 | > 25 | > 25 | > 25 | > 25 µM (inactive)
4 | Cc1cc(C(=O)COC(=O)c2ccc([N+](=O)[O-])o2)c(C)n1CC1CCCO1 (centres undefined) | 19.2 µM (inactive) | 18.9 | 19.4 | 16.4 | > 25 | 
5 | COc1ccc(CC(=O)Nc2ccc(-c3nnc(-c4ccc(C)cc4)o3)cc2)cc1 | > 25 µM (inactive) | > 25 | > 25 | > 25 | > 25 | > 25 µM (inactive)
6 | CCC(C)(C)NC(=O)C(c1ccc(C)cc1)N(Cc1ccco1)C(=O)CCC(=O)Nc1nccs1 (centres undefined) | 6.82 µM | 4.82 | 8.81 | > 25 | > 25 | > 25 µM (inactive)
7 | COc1ccc(-c2cc(NC=O)c3ncc(-c4cc(OC)c(OC)c(OC)c4)n3c2)c(OC)c1 | > 25 µM (inactive) | > 25 | > 25 | > 25 | > 25 | > 25 µM (inactive)
8 | Cc1ccc(Cn2c(C(C)Nc3nc(-c4ccc(Cl)c([N+](=O)[O-])c4)cs3)nc3cc(C(F)(F)F)ccc32)cc1 (centres undefined) | 8.37 µM | 6.7 | 10 | > 25 | 7.97 | 
9 | COc1cc(C(CCN2CCCCC2)c2c(OC)cc(OC)c3c(-c4ccccc4)cc(=O)oc23)cc(OC)c1OC (centres undefined) | > 25 µM (inactive) | > 25 | > 25 | > 25 | > 25 | > 25 µM (inactive)
10 | COCCn1cnc2c(c1=O)c1nc3ccccc3nc1n2/N=C/c1ccc(OC)c(OC)c1 | 5.19 µM | 3.71 | 6.68 | 23.4 | > 25 | 
11 | COc1ccccc1NC1=NC(c2ccc(Cl)cc2)N=C(N)N1 (centres undefined) | > 25 µM (inactive) | > 25 | > 25 | > 25 | > 25 | > 25 µM (inactive)
12 | COc1ccc(CNC(=O)Nc2nc(C(N)Cc3ccc(Cl)cc3)cs2)cc1 (centres undefined) | > 25 µM (inactive) | > 25 | > 25 | 19.5 | 23.9 | 21.7 µM (inactive)
13 | O=C(Cc1n[nH]c(=O)c2ccccc12)OCC(=O)c1ccc2c(c1)OCCO2 | > 25 µM (inactive) | > 25 | > 25 | > 25 | > 25 | > 25 µM (inactive)
14 | Cc1cccn2c(=O)c3cc(C(=O)NC4CCCC4)c(=N)n(C4CCCC4)c3nc12 | 11.9 µM | 8.07 | 15.8 | > 25 | > 25 | > 25 µM (inactive)
15 | Nc1cc2c(cc1Br)[nH]c(=O)c1ccccc12 | 8.3 µM | 8.66 | 7.94 | > 25 | > 25 | > 25 µM (inactive)
16 | Cc1ccc(-c2csc(NC(=O)CSc3nc4ccccc4c(=O)n3CCCN(C)C)n2)cc1 | 7.04 µM | 7.46 | 6.62 | > 25 | > 25 | > 25 µM (inactive)
17 | NC(Cc1ccc(C(F)(F)F)cc1)c1csc(Nc2nncc3ccccc23)n1 (centres undefined) | > 25 µM (inactive) | > 25 | > 25 | 21.5 | 21.3 | 21.4 µM (inactive)

Row | Compound | IC50 (TAG; mean of runs) | IC50 (TAG; run 1) [µM] | IC50 (TAG; run 2) [µM] | IC50 cytotoxicity (DAPI nuclear signal decrease) (DAPI; run 1) [µM] | IC50 cytotoxicity (DAPI nuclear signal decrease) (DAPI; run 2) [µM] | IC50 cytotoxicity (DAPI nuclear signal decrease) (DAPI; mean of runs)
18 | O=C(c1cc(-c2ccncc2)nc2c(Cl)cccc12)N1CCN(c2ccccc2F)CC1 | 5.67 µM | 6.89 | 4.44 | > 25 | > 25 | > 25 µM (inactive)
19 | COc1ccc(C[C@H]2CN3C(=NC[C@@H]3Cc3ccc(O)cc3)N2CCNC(=O)c2ccc(C)c(Br)c2)cc1 | > 25 µM (inactive) | > 25 | > 25 | 24 | > 25 | 
20 | COc1ccc(CNC(=O)C2CCN(c3nc(-c4ccccc4)nc4c3CCC4)CC2)cc1 | 13.8 µM | 11.5 | 16.1 | > 25 | > 25 | > 25 µM (inactive)
21 | O=C1C(NS(=O)(=O)c2cccs2)=C(N2CCN(c3cccc(C(F)(F)F)c3)CC2)C(=O)c2ccccc21 | 5.88 µM | 7.01 | 4.75 | > 25 | > 25 | > 25 µM (inactive)
22 | CC1(C)Cc2nc3sc4c(SCC(=O)NCc5ccco5)ncnc4c3cc2CO1 | > 25 µM (inactive) | > 25 | > 25 | > 25 | > 25 | > 25 µM (inactive)
23 | C[C@H](CO)N1C[C@H](C)[C@@H](CN(C)Cc2ccc(-c3ccccc3)cc2)Oc2c(NC(=O)Cc3ccccc3)cccc2C1=O | 11.3 µM | 12.4 | 10.2 | > 25 | > 25 | > 25 µM (inactive)
24 | O=C(Cn1cc[n+](CC(=O)c2ccc(Cl)cc2Cl)c1)c1ccc(Cl)cc1Cl |  | > 25 | 20.9 | > 25 | > 25 | > 25 µM (inactive)
25 | CCCCCc1ccc(-c2cn(Cc3ccc(C(=O)c4ccccc4)cc3)nn2)cc1 |  | 17.9 | > 25 | > 25 | > 25 | > 25 µM (inactive)
26 | CCCc1cc(N2CCCC2)n2nc(C)c(-c3ccccc3)c2n1 | > 25 µM (inactive) | > 25 | > 25 | > 25 | > 25 | > 25 µM (inactive)
27 | CCN1C(=O)[C@H]2[C@@H](c3ccc(-c4ccccc4)c(OC)c3)N[C@@](CC(C)C)(C(=O)OC)[C@H]2C1=O | 10.3 µM | 12.4 | 8.14 | > 25 | > 25 | > 25 µM (inactive)
28 | CSc1nc(N(C)NC(=O)c2ccc(Cl)cc2)c2ccccc2n1 | > 25 µM (inactive) | > 25 | > 25 | > 25 | > 25 | > 25 µM (inactive)
29 | Cc1ccc(C(=O)Nc2cc(C)c(OCC(=O)N3CCOCC3)c(C)c2)cc1 | > 25 µM (inactive) | > 25 | > 25 | > 25 | > 25 | > 25 µM (inactive)
30 | O=C(Nc1cccc(-c2csc(Nc3cccc(C(F)(F)F)c3)n2)c1)c1cc([N+](=O)[O-])cc(C(F)(F)F)c1 | > 25 µM (inactive) | > 25 | > 25 | > 25 | > 25 | > 25 µM (inactive)
31 | COc1cc(-c2noc(C)c2C#Cc2ccc(N)cc2)cc(OC)c1OC |  | > 25 | 8.23 | > 25 | > 25 | > 25 µM (inactive)
32 | COc1ccc(Nc2oc(-c3ccc(Cl)cc3)nc2C#N)cc1 |  | 17.9 | > 25 | > 25 | > 25 | > 25 µM (inactive)
33 | Cn1c(N)c(C(=O)COC(=O)c2ccc([N+](=O)[O-])o2)c(=O)n(C)c1=O | 10.1 µM | 8.87 | 11.3 | 18.4 | 19.8 | 19.1 µM (inactive)
